These results are taken from PMC9278656 (Journal of medicinal chemistry, 2021).

The structures appear in SMILES notation. Where two headings read alike, the source gives them in different places.

Data set [1] deals with p53^R175H. The experiment in a line: Immunofluorescence with conformation-specific antibodies PAB1620/PAB240. It counts as cell-based.
Data set [2] is described as follows: Caco-2 permeability. In kind it is in vitro ADME. As to conditions: human.
In data set [3] the test system is MDA-MB-468 (p53^R273H) tumors. As to the kind of experiment: Xenograft tumor assay, MDA-MB-468. As to conditions: non Zn-deficient mutation, Suppl. Figure S2. It counts as in vivo, nude mice NCr nu/nu.
In data set [4] the test system is p53 wild type and p53 null cell lines. The experiment in a line: Cell kill in p53 wild type and p53 null cell lines. In kind it is cell-based. As to conditions: allele selectivity, Suppl. Figure S1.
Data set [5] deals with Human Norepinephrine Transporter (Homo sapiens, UniProt P23975). As to the kind of experiment: CEREP safety screen, norepinephrine transporter. In kind it is binding. As to conditions: 10 μM.
Sequence of Human Norepinephrine Transporter (P23975 whole entry): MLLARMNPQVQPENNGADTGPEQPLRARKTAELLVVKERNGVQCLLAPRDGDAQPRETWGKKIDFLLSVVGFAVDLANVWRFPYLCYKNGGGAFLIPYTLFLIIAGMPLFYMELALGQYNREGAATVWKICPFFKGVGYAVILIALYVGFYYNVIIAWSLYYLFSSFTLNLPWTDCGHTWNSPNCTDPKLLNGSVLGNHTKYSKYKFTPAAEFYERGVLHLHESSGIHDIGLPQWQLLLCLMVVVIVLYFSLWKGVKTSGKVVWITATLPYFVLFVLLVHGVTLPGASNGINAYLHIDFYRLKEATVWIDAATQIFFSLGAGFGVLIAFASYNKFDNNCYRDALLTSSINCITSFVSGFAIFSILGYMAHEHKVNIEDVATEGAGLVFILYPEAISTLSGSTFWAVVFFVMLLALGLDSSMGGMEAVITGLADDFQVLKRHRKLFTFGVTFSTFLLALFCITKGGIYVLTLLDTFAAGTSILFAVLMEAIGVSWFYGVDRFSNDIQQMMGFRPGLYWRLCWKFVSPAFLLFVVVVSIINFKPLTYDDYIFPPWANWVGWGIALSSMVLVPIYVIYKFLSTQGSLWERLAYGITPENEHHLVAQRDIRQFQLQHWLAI
Data set [6] can be described thus: Ionophore activity. As to conditions: larger number indicates weaker ionophore activity.
Data set [7] has as its system Rat Sodium Channel site 2. As to the kind of experiment: CEREP safety screen, sodium channel site 2. In kind it is binding. As to conditions: 10 μM.
For data set [8] the following is noted: NCr nu/nu nude, mouse, in vivo, ip.
For data set [9] the following is noted: cited from earlier work.
The conditions of data set [10]: read-out: KZn; order of magnitude, stated in Conclusions.

As a reminder, the Papp is the rate of passage across a membrane or cell layer, normalised by area and donor concentration. Read a high Papp as fast passage. Consider `C/C(=N\Nc1nc2ccccc2s1)c1ccccn1` [C1, (E)-2-(2-(1-(Pyridin-2-yl)ethylidene)hydrazinyl)benzo[d]thiazole], for which the “Refolding p53^R175H → wild type” value in [1] is reported as “induced a wild-type conformational change”; in data set [1] (listed as Cl), “YES”. This compound displayed a Papp at 90 min, 5 μM in data set [2] of 44 ± 1 nm/s. The “Tumor growth inhibition of p53^R273H tumors” value in data set [3] is given as “did not inhibit the tumor growth”. Further, the “Cell kill in p53 wild type and p53 null cell lines” value in [4] is given as “almost no cell kill”. For the same compound, the “Activity against the norepinephrine transporter, in words” value in data set [5] was “showed activity”. Also, the “Ionophore Ji drug/Ji DMSO” value in [6] is 11.6 -log[mol/m^2s]. Besides, the “Activity against the sodium channel, in words” value in data set [7] was “showed activity”. Moreover, the “Well tolerated dose without significant weight loss” value in data set [8] is “up to 30 mg/kg”. In addition, in data set [9], the Aqueous solubility entry was “low aqueous solubility”.

As to `C/C(=N\NC(=S)N1CCC1)c1ccccn1` [ZMC1, (E)-N′-(1-(Pyridin-2-yl)ethylidene)azetidine-1-carbothiohydrazide, reference compound], the Kd in data set [10] came to 0.01 µM. This compound also displayed a Papp at 90 min, 5 μM in [2] of 156 ± 13 nm/s. The “Ionophore Ji drug/Ji DMSO” value in data set [6] is 12.4 -log[mol/m^2s].
